The source of these data is PMC12120644, “Modulation of the Inflammatory Process through the Control of Cyclooxygenase Using Peptides Obtained from Lithobates Catesbeianus Identified by Molecular Docking” (ACS Omega, 2025).

“Also recorded” adds a separate entry of the source. No end group written: not given here.

The subject of one assay is IL-6. As to the kind of experiment: IL-6 immunoassay (ELISA), LPS-stimulated macrophages. The assay is classed as cell-based, murine. As to conditions: LPS 1 μg/mL for 4 h, 1 mM the only significant of 0.025, 0.05, 0.5, and 1 mM, ELISA 405 nm. The procedure: Quantification of IL-6 was determined using the Murine Mini ABTS IL-6 ELISA kit (PeproTech, Cat No. 900-M50), according to the manufacturer’s instructions. The absorbance was measured at 405 nm, and IL-6 concentrations were quantified based on the IL-6 standard curve (0−4000 pg/mL).
5 IL-6 concentration (pg/mL) in macrophages treated at 0.025, 0.05, 0.5, and 1.0 mM peptide 1 and exposure to 1 μg/mL LPS for 4 h. Ctrl-: Negative control (cells + DMEM); Ctrl+: Positive control 1 (cells + DMEM+ and LPS); P1 (cells + DMEM + peptide at different concentrations + LPS). Data (n = 3) are expressed as mean and standard error.
(In an ELISA, binding on a coated surface is turned into a signal by an enzyme label.)

For the next assay, the system named is total cyclooxygenase. As to the kind of experiment: COX inhibition assay (total COX activity, LPS-stimulated RAW 264.7). The assay is classed as cell-based. As to conditions: RAW 264.7 stimulated with LPS 1 μg/mL for 4 h, peptide 1 mM, chemiluminescent enzymatic kit (Cayman), vs LPS control, t test P < 0.05. The procedure:
The in vitro total cyclooxygenase inhibition was evaluated using a chemiluminescent enzymatic kit (Cayman Chemical, MI), according to the manufacturer’s protocol. The RAW 264.7 cell line was purchased from the American Type Culture Collection (Rockville, MD) and routinely grown in DMEM supplemented with 10% fetal bovine serum (FBS). The cells were subcultured every 3 to 4 days at 1 × 10^8 cells/mL. The positive control group was exposed to lipopolysaccharide (LPS) at 1 μg/mL for 4 h to induce inflammation. Cells were collected and centrifuged at 600g for 10 min at 4 °C. The supernatant was carefully removed and cells were resuspended in 2 mL of DMEM, resulting in 1 × 10^8 cells/mL.
4 Effect of SGHPGAMGPVGPR (P1), IGPAGSAGSR (P2), GPSGPAGARGDK (P3), and […] (P4) peptides on the total COX activity. The RAW 264.7 cells were subcultured at 1 × 10^8 cells/mL density and stimulated with LPS at 1 μg/mL for 4 h. Cells were collected by centrifugation at a speed of 2.000 rpm for 10 min at 4 °C and were resuspended in DMEM. After that, cells were treated with the peptides, and ELISA was performed. Significant by the t test (P < 0.05). CTRL: control (cells stimulated with LPS).

On to SGHPGAMGPVGPR [Peptide P1], for which the “IL-6 levels (in words)” value in the assay with IL-6 (n = 3) is “downregulating IL-6 expression; also recorded: significantly downregulated IL-6 levels in a dose-dependent manner”; in the assay with IL-6 (n = 3, listed as peptide 1), “best results in decreasing the cells’ total COX and IL-6 cytokines”. Also, the “total COX activity (in words)” value in the assay with total cyclooxygenase is on record as “effectively inhibiting total COX activity; also recorded: only peptide P1 exhibited an inhibitory capacity on the total COX activity; also recorded: only P1 demonstrated the ability to reduce the total COX activity”; in the assay on total cyclooxygenase (listed as peptide 1) it was “best results in decreasing the cells’ total COX”.
